Experimental data published in patent US9944602B2, “Piperidinone herbicides” (E. I. DU PONT DE NEMOURS AND COMPANY, priority 2014, dated 2018).

Legend:
Format in all cases: in vivo
corn (Zea mays) = experiment: Test A postemergence corn; conditions: Zea mays, post-emergence, 240 h, 0 to 100 scale, 0 is no effect, 100 is complete control
Outline: (§1)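 Plants were grown in a blend of loam soil and sand. For preemergence testing the soil was sprayed directly after seeding, while postemergence testing used seedlings 2–10 cm high at one to two leaves; all treatments were rated visually for injury (0–100) after ~10 d.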

[1] = tested on: wheat (Triticum aestivum); experiment: Test A postemergence wheat; conditions: Triticum aestivum, post-emergence, 240 h, 0 to 100 scale, 0 is no effect, 100 is complete control, read-out: Plant response rating, Wheat
Outline: as §1

[2] = tested on: ryegrass, Italian (Italian ryegrass, Lolium multiflorum); experiment: Test A preemergence ryegrass, Italian; conditions: Lolium multiflorum, pre-emergence, 240 h, 0 to 100 scale, 0 no effect, 100 complete control, read-out: Ryegrass, Italian plant response rating
Outline: as §1

[3] = tested on: pigweed (Amaranthus retroflexus); experiment: Test A preemergence pigweed; conditions: Amaranthus retroflexus, pre-emergence, 240 h, 0 to 100 scale, 0 no effect, 100 complete control, read-out: Pigweed plant response rating
Outline: as §1

[4] = tested on: pigweed (Amaranthus retroflexus); experiment: Test A postemergence pigweed; conditions: Amaranthus retroflexus, post-emergence, 240 h, 0 to 100 scale, 0 is no effect, 100 is complete control, read-out: Plant response rating, Pigweed
Outline: as §1

[5] = tested on: ryegrass, Italian (Italian ryegrass, Lolium multiflorum); experiment: Test A postemergence ryegrass, Italian; conditions: Lolium multiflorum, post-emergence, 240 h, 0 to 100 scale, 0 is no effect, 100 is complete control, read-out: Plant response rating, Ryegrass, Italian
Outline: as §1

[6] = tested on: foxtail, giant (giant foxtail, Setaria faberii); experiment: Test A postemergence foxtail, giant; conditions: Setaria faberi, post-emergence, 240 h, 0 to 100 scale, 0 is no effect, 100 is complete control, read-out: Plant response rating, Foxtail, Giant
Outline: as §1

[7] = tested on: ducksalad (Heteranthera limosa); experiment: Test B flooded paddy test ducksalad; conditions: Heteranthera limosa, Table B, Flood, scale 0 to 100, read-out: Plant response rating
Outline: (§2)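 Plants at 2-leaf stage in pots flooded 3 cm above soil; compounds applied directly into paddy water, depth kept throughout.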

[8] = tested on: barnyardgrass (Echinochloa crus-galli); experiment: Test A postemergence barnyardgrass; conditions: Echinochloa crus-galli, post-emergence, 240 h, 0 to 100 scale, 0 is no effect, 100 is complete control, read-out: Plant response rating, Barnyardgrass
Outline: as §1

kochia (Kochia scoparia) [9] = experiment: Test A postemergence kochia; conditions: Bassia scoparia, post-emergence, 240 h, 0 to 100 scale, 0 is no effect, 100 is complete control, read-out: Plant response rating, Kochia
Outline: as §1

rice (Oryza sativa) = experiment: Test B flooded paddy test rice; conditions: Oryza sativa, Table B, Flood, scale 0 to 100, read-out: Plant response rating
Outline: as §2

[10] = tested on: sedge, umbrella (small-flower umbrella sedge, Cyperus difformis); experiment: Test B flooded paddy test sedge, umbrella; conditions: Cyperus difformis, Table B, Flood, scale 0 to 100, read-out: Plant response rating
Outline: as §2

[11] = tested on: blackgrass (Alopecurus myosuroides); experiment: Test A postemergence blackgrass; conditions: Alopecurus myosuroides, post-emergence, 240 h, 0 to 100 scale, 0 is no effect, 100 is complete control, read-out: Plant response rating, Blackgrass
Outline: as §1

[12] = tested on: ragweed (common ragweed, Ambrosia elatior); experiment: Test A preemergence ragweed; conditions: Ambrosia artemisiifolia, pre-emergence, 240 h, 0 to 100 scale, 0 no effect, 100 complete control, read-out: Ragweed plant response rating
Outline: as §1

[13] = tested on: barnyardgrass (Echinochloa crus-galli); experiment: Test B flooded paddy test barnyardgrass; conditions: Echinochloa crus-galli, Table B, Flood, scale 0 to 100, read-out: Plant response rating
Outline: as §2

[14] = tested on: foxtail, giant (giant foxtail, Setaria faberii); experiment: Test A preemergence foxtail, giant; conditions: Setaria faberi, pre-emergence, 240 h, 0 to 100 scale, 0 no effect, 100 complete control, read-out: Foxtail, Giant plant response rating
Outline: as §1

kochia (Kochia scoparia) [15] = experiment: Test A preemergence kochia; conditions: Bassia scoparia, pre-emergence, 240 h, 0 to 100 scale, 0 no effect, 100 complete control, read-out: Kochia plant response rating
Outline: as §1

[16] = tested on: ragweed (common ragweed, Ambrosia elatior); experiment: Test A postemergence ragweed; conditions: Ambrosia artemisiifolia, post-emergence, 240 h, 0 to 100 scale, 0 is no effect, 100 is complete control, read-out: Plant response rating, Ragweed
Outline: as §1

[17] = tested on: barnyardgrass (Echinochloa crus-galli); experiment: Test A preemergence barnyardgrass; conditions: 0 to 100 scale
Outline: as §1

[18] = tested on: galium (catchweed bedstraw, Galium aparine); experiment: Test A postemergence galium; conditions: Galium, post-emergence, 240 h, 0 to 100 scale, 0 is no effect, 100 is complete control, read-out: Plant response rating, Galium
Outline: as §1

O=C1NCCC(c2ccc(C(F)(F)F)cc2)C1C(=O)Nc1ccccc1F (stereo not shown) [Compound 14, N-(2-fluorophenyl)-2-oxo-4-[4-(trifluoromethyl)phenyl]-3-piperidinecarboxamide]
90%: pest or weed control at 500 g/ha ([6]; 500 g ai/ha) | pest or weed control at 500 g/ha ([8]; 500 g ai/ha) | pest or weed control at 500 g/ha ([14]; 500 g ai/ha)
30%: pest or weed control at 125 g/ha ([6]; 125 g ai/ha) | pest or weed control at 250 g/ha ([13]; 250 g ai/ha) | pest or weed control at 1000 g/ha ([13]; 1000 g ai/ha) | pest or weed control at 125 g/ha ([14]; 125 g ai/ha)
100%: pest or weed control at 1000 g/ha ([7]; 1000 g ai/ha)
90: Plant response rating, Barnyardgrass ([17]; 500 g ai/ha, 0 is no effect, 100 is complete control)
50%: pest or weed control at 125 g/ha ([17]; Echinochloa crus-galli, pre-emergence, 240 h, 125 g ai/ha, 0 no effect, 100 complete control, read-out: Barnyardgrass plant response rating)
0%: Corn plant response rating (crop injury, 0 = no effect, 100 = complete kill) at 125 g/ha (corn (Zea mays); 125 g ai/ha) | Corn plant response rating (crop injury, 0 = no effect, 100 = complete kill) at 500 g/ha (corn (Zea mays); 500 g ai/ha) | plant injury at 125 g/ha ([1]; 125 g ai/ha) | plant injury at 500 g/ha ([1]; 500 g ai/ha) | pest or weed control at 125 g/ha ([2]; 125 g ai/ha) | pest or weed control at 500 g/ha ([2]; 500 g ai/ha) | pest or weed control at 125 g/ha ([3]; 125 g ai/ha) | pest or weed control at 500 g/ha ([3]; 500 g ai/ha) | pest or weed control at 125 g/ha ([4]; 125 g ai/ha) | pest or weed control at 500 g/ha ([4]; 500 g ai/ha) | pest or weed control at 125 g/ha ([5]; 125 g ai/ha) | pest or weed control at 500 g/ha ([5]; 500 g ai/ha) | pest or weed control at 125 g/ha (kochia (Kochia scoparia) [9]; 125 g ai/ha) | pest or weed control at 500 g/ha (kochia (Kochia scoparia) [9]; 500 g ai/ha) | plant injury at 250 g/ha (rice (Oryza sativa); 250 g ai/ha) | plant injury at 1000 g/ha (rice (Oryza sativa); 1000 g ai/ha) | pest or weed control at 250 g/ha ([10]; 250 g ai/ha) | pest or weed control at 1000 g/ha ([10]; 1000 g ai/ha) | pest or weed control at 125 g/ha ([11]; 125 g ai/ha) | pest or weed control at 500 g/ha ([11]; 500 g ai/ha) | pest or weed control at 125 g/ha ([12]; 125 g ai/ha) | pest or weed control at 500 g/ha ([12]; 500 g ai/ha) | pest or weed control at 125 g/ha (kochia (Kochia scoparia) [15]; 125 g ai/ha) | pest or weed control at 125 g/ha ([16]; 125 g ai/ha) | pest or weed control at 500 g/ha ([16]; 500 g ai/ha) | pest or weed control at 125 g/ha ([18]; 125 g ai/ha) | pest or weed control at 500 g/ha ([18]; 500 g ai/ha)
80%: pest or weed control at 250 g/ha ([7]; 250 g ai/ha)
20%: pest or weed control at 125 g/ha ([8]; 125 g ai/ha) | pest or weed control at 500 g/ha (kochia (Kochia scoparia) [15]; 500 g ai/ha)
